Laboratory results: ChEMBL document CHEMBL5154670, “Discovery of selective irreversible inhibitors of B-Lymphoid tyrosine kinase (BLK)” (Eur J Med Chem, 2022)
Each block holds one molecule with its values, some of them ahead of it. Calls of active or inactive are those of the source. The calls are words filed in the database; no cut-off is given here.

Assays:
[1] = molecular target: T1, Tyrosine-protein kinase BTK (Homo sapiens, UniProt Q06187); experiment: Inhibition of wild type N-terminal GST tagged BTK (unknown origin) (2 to 659 residues) expressed in sf21 insect cell using TK as substrate incubated for 50 mins in presence of ATP by HTRF assay
T1 sequence (Q06187 whole entry, the tested form may be a part): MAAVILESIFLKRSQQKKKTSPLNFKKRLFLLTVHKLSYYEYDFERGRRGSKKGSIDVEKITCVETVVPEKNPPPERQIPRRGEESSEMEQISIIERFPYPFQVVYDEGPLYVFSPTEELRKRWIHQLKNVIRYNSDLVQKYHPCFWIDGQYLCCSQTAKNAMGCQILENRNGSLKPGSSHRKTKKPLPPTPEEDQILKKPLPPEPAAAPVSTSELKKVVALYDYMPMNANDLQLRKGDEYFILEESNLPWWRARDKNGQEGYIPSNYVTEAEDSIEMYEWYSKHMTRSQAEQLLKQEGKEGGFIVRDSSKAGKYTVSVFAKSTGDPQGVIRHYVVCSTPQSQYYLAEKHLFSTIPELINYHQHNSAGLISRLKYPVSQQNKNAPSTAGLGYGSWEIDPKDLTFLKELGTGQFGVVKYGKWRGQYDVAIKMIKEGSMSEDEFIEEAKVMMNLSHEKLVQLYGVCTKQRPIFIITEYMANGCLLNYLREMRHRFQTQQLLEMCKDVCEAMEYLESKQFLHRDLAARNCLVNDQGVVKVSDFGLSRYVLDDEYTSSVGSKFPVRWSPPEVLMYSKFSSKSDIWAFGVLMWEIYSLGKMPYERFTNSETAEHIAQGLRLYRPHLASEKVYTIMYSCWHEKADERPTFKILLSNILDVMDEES

[2] = molecular target: Receptor tyrosine-protein kinase erbB-4 (Homo sapiens) (UniProt Q15303); experiment: Inhibition of HER4 (unknown origin) at 0.3 uM relative to control
Sequence of Receptor tyrosine-protein kinase erbB-4 (Homo sapiens) (Q15303 whole entry): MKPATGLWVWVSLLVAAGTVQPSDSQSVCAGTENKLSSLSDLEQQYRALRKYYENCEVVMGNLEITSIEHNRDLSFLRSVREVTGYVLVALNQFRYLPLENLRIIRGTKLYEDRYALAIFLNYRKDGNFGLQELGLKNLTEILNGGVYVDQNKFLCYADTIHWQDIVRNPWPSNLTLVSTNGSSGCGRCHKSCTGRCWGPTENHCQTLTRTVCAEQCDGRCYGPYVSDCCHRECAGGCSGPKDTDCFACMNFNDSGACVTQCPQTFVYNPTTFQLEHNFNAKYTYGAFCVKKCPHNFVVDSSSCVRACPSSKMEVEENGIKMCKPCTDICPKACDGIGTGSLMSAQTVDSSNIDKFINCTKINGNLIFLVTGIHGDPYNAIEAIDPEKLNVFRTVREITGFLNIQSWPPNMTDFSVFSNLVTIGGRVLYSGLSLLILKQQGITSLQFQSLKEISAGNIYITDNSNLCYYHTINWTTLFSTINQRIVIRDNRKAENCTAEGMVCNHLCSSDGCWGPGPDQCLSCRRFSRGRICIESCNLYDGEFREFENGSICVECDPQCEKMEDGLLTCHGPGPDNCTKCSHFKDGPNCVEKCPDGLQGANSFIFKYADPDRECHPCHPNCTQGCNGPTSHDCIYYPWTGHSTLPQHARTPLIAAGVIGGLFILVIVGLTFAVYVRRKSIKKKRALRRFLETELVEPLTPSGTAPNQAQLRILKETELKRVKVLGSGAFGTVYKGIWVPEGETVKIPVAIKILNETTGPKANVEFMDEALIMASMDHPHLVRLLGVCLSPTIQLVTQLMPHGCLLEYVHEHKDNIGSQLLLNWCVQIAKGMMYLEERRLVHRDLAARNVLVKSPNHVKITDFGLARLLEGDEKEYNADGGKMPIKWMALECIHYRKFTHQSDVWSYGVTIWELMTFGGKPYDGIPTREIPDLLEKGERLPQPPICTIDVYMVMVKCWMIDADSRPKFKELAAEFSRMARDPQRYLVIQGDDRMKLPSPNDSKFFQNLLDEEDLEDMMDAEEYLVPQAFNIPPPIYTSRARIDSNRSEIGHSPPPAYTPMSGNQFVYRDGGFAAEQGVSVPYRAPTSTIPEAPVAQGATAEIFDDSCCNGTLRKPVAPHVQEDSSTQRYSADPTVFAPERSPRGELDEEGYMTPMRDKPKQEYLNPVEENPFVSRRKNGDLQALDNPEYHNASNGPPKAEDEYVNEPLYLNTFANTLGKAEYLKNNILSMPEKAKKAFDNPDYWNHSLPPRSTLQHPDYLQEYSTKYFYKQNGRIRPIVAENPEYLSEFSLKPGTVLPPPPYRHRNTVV

[3] = molecular target: T2, Tyrosine-protein kinase Blk (Homo sapiens, UniProt P51451); experiment: Inhibition of BLK (unknown origin) at 0.3 uM relative to control
Target sequence in this assay (P51451 2-505 limits assumed): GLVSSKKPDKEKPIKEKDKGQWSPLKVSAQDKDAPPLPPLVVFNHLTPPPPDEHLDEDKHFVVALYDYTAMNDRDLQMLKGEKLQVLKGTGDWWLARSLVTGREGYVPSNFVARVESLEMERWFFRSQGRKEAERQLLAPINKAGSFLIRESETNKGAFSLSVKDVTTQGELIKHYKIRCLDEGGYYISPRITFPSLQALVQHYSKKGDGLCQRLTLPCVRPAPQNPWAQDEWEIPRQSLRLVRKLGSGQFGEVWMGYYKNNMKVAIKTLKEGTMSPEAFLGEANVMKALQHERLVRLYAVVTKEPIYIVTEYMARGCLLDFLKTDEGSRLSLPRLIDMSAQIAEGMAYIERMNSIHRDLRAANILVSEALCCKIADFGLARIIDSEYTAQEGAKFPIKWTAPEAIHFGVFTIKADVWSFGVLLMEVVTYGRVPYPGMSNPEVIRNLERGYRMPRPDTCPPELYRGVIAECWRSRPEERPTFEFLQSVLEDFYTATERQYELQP

[4] = molecular target: T2, Tyrosine-protein kinase Blk; experiment: Irreversible inhibition of wild type N-terminal GST tagged BLK (unknown origin) (1 to 505 residues) expressed in sf21 insect cell at 3 uM incubated for 4 hrs and measured after 48 hrs dialysis
Target sequence in this assay (P51451 2-505 limits assumed): as above

A-431 = experiment: Antiproliferative activity against human A-431 cells assessed as cell growth inhibition incubated for 72 hrs by celltiter-glo luminescent cell viability assay; type: functional
MOLT-4 = experiment: Antiproliferative activity against human MOLT-4 cells assessed as cell growth inhibition incubated for 72 hrs by celltiter-glo luminescent cell viability assay; type: functional
[5] = molecular target: Tyrosine-protein kinase ITK/TSK (Homo sapiens) (UniProt Q08881); experiment: Inhibition of ITK (unknown origin) at 0.3 uM relative to control
[6] = molecular target: Tyrosine-protein kinase TXK (Homo sapiens) (UniProt P42681); experiment: Inhibition of TXK (unknown origin) at 0.3 uM relative to control
Sequence of Tyrosine-protein kinase TXK (Homo sapiens) (P42681 whole entry): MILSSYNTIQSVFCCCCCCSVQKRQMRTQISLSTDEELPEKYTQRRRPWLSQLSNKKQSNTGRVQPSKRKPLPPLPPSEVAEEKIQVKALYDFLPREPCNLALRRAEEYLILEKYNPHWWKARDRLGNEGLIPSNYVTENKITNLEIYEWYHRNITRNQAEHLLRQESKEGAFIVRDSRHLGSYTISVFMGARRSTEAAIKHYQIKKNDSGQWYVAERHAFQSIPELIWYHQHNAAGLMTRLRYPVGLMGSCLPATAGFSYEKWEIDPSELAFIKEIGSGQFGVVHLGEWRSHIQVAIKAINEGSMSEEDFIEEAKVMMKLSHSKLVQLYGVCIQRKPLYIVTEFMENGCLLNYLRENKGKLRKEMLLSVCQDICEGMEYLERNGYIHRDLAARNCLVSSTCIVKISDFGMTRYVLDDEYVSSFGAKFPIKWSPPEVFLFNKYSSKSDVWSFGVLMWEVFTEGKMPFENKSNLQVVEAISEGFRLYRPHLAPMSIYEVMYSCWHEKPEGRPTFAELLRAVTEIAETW

SU-DHL-6 [7] = experiment: Downregulation of CDK2 expression in human SU-DHL-6 cells at 0.3 uM incubated for 24 hrs by Western blot analysis; type: functional, cell-based
[8] = Antiproliferative activity against human HBL1 cells assessed as cell growth inhibition incubated for 72 hrs by celltiter-glo luminescent cell viability assay; type: functional
[9] = molecular target: T2, Tyrosine-protein kinase Blk; experiment: Inhibition of wild type N-terminal GST tagged BLK (unknown origin) (1 to 505 residues) expressed in sf21 insect cell using TK as substrate incubated for 50 mins in presence of ATP by HTRF assay
Target sequence in this assay (P51451 whole entry, the tested form may be a part): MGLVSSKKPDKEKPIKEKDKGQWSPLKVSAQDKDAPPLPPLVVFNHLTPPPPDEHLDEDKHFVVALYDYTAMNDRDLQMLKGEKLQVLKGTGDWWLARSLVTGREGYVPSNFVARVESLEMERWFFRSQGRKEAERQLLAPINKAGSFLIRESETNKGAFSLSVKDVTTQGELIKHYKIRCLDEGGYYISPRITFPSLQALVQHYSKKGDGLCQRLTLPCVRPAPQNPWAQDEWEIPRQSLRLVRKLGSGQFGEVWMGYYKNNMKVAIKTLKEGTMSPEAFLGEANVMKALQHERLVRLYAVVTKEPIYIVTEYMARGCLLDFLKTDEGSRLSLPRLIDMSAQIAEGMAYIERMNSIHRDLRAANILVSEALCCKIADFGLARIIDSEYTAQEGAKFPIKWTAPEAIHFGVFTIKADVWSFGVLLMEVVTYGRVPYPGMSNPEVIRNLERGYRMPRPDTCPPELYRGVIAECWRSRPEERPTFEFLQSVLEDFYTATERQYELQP

[10] = molecular target: Cytoplasmic tyrosine-protein kinase BMX (Homo sapiens) (UniProt P51813); experiment: Inhibition of BMX (unknown origin) at 0.3 uM relative to control
[11] = molecular target: T1, Tyrosine-protein kinase BTK; experiment: Inhibition of BTK in goat anti-human IgM antibody stimulated human Ramos cells assessed as BTK autophosphorylation at […] residue preincubated for 1 hr followed by antibody stimulation by Western blot analysis; type: cell-based
[12] = molecular target: Epidermal growth factor receptor (Homo sapiens) (UniProt P00533); experiment: Inhibition of EGFR (unknown origin) at 0.3 uM relative to control
Homo sapiens = species: Homo sapiens; experiment: Selectivity ratio, ratio of IC50 for inhibition of BTK (unknown origin) to IC50 for inhibition of BLK (unknown origin)
HCT-116 = experiment: Antiproliferative activity against human HCT-116 cells assessed as cell growth inhibition incubated for 72 hrs by celltiter-glo luminescent cell viability assay; type: functional
A549 = experiment: Antiproliferative activity against human A549 cells assessed as cell growth inhibition incubated for 72 hrs by celltiter-glo luminescent cell viability assay; type: functional
[13] = molecular target: T1, Tyrosine-protein kinase BTK; experiment: Inhibition of BTK in goat anti-human IgM antibody stimulated human Ramos cells assessed as PLCgamma2 phosphorylation preincubated for 1 hr followed by antibody stimulation by Western blot analysis; type: cell-based
[14] = molecular target: T2, Tyrosine-protein kinase Blk; experiment: (§1) Inhibition of (S)-3-(3-(5-acrylamido-6-(3-(5-(2-methyl-5-(3-(trifluoromethyl)benzamido)benzamido)pyrimidin-2-ylamino)phenylamino)-6-oxohexylamino)-3-oxopropyl)-5,5-difluoro-7,9-dimethyl-5H-dipyrrolo[1,2-c:1',2'-f][1,3,2]diazaborinin-4-ium-5-uide binding to BLK in human NAMALVA cells preincubated for 1 hr followed by compound washout for three times and treated with probe for 1 hr by competitive labeling assay; type: cell-based
Target sequence in this assay (P51451 whole entry, the tested form may be a part): as above

[15] = Downregulation of CDK2 expression in human SU-DHL-6 cells at 0.3 uM preincubated for 1 hr followed by compound washout for 11 hrs and further incubated for 1 hr with compound followed by second washout for 11hrs by Western blot analysis; type: functional; conditions: time 2 hrs
[16] = molecular target: Receptor tyrosine-protein kinase erbB-2 (Homo sapiens) (UniProt P04626); experiment: Inhibition of HER2 (unknown origin) at 0.3 uM relative to control
[17] = Antiproliferative activity against human PBMC cells assessed as cell growth inhibition incubated for 72 hrs by celltiter-glo luminescent cell viability assay; type: toxicity, cell-based
[18] = molecular target: Tyrosine-protein kinase Tec (Homo sapiens) (UniProt P42680); experiment: Inhibition of TEC (unknown origin) at 0.3 uM relative to control
Sequence of Tyrosine-protein kinase Tec (Homo sapiens) (P42680 whole entry): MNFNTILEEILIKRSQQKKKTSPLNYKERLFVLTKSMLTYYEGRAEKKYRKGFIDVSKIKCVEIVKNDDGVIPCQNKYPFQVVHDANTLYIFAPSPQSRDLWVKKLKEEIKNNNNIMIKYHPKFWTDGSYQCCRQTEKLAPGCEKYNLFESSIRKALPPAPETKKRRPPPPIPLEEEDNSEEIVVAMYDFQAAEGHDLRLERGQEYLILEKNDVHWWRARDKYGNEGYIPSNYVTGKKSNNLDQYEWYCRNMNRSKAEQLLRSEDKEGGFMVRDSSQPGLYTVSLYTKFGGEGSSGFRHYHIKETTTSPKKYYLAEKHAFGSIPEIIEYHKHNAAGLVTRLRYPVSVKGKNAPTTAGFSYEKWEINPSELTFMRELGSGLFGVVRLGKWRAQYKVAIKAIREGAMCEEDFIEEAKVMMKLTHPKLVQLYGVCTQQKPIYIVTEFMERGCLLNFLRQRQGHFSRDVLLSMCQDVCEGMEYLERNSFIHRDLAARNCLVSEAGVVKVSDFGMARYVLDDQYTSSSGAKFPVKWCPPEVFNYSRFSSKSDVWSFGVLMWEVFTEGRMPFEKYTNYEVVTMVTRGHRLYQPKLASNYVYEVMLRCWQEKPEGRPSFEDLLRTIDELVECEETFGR

SU-DHL-6 [19] = experiment: Downregulation of CDK2 expression in human SU-DHL-6 cells at 0.1 to 0.3 uM incubated for 24 hrs by Western blot analysis; type: functional, cell-based; conditions: dose 0.1-0.3 µM
MDA-MB-453 = experiment: Antiproliferative activity against human MDA-MB-453 cells assessed as cell growth inhibition incubated for 72 hrs by celltiter-glo luminescent cell viability assay; type: functional
OCI-Ly7 = experiment: Antiproliferative activity against human OCILY7 cells assessed as cell growth inhibition incubated for 72 hrs by celltiter-glo luminescent cell viability assay; type: functional
SU-DHL-6 [20] = experiment: Antiproliferative activity against human SU-DHL-6 cells assessed as cell growth inhibition incubated for 72 hrs by celltiter-glo luminescent cell viability assay; type: functional
SU-DHL10 = experiment: Antiproliferative activity against human SU-DHL-10 cells assessed as cell growth inhibition incubated for 72 hrs by celltiter-glo luminescent cell viability assay; type: functional
Jurkat = experiment: Antiproliferative activity against human Jurkat cells assessed as cell growth inhibition incubated for 72 hrs by celltiter-glo luminescent cell viability assay; type: functional
[21] = molecular target: T1, Tyrosine-protein kinase BTK; experiment: Inhibition of BTK (unknown origin) at 0.3 uM relative to control
Pfeiffer = experiment: Antiproliferative activity against human Pfeiffer cells assessed as cell growth inhibition incubated for 72 hrs by celltiter-glo luminescent cell viability assay; type: functional
DOHH-2 [22] = experiment: Antiproliferative activity against human DOHH-2 cells assessed as cell growth inhibition incubated for 72 hrs by celltiter-glo luminescent cell viability assay; type: functional
[23] = Antiproliferative activity against HEK293 cells assessed as cell growth inhibition incubated for 72 hrs by celltiter-glo luminescent cell viability assay; type: toxicity, cell-based; conditions: human
A-375 = experiment: Antiproliferative activity against human A-375 cells assessed as cell growth inhibition incubated for 72 hrs by celltiter-glo luminescent cell viability assay; type: functional
[24] = molecular target: T2, Tyrosine-protein kinase Blk; experiment: Inhibition of BLK in goat anti-human IgM antibody stimulated human Ramos cells assessed as BLK autophosphorylation at Tyr 389 residue at 0.3 uM preincubated for 1 hr followed by compound washout for 2 hrs and antibody stimulation by Western blot analysis; type: cell-based
Target sequence in this assay (P51451 2-505 limits assumed): as the sequence (P51451 2-505 limits assumed) above

TMD8 = experiment: Antiproliferative activity against human TMD8 cells assessed as cell growth inhibition incubated for 72 hrs by celltiter-glo luminescent cell viability assay; type: functional
DOHH-2 [25] = experiment: Downregulation of CDK2 expression in human DOHH-2 cells at 0.1 to 0.3 uM incubated for 24 hrs by Western blot analysis; type: functional, cell-based; conditions: dose 0.1-0.3 µM
[26] = molecular target: Tyrosine-protein kinase Lyn (Homo sapiens) (UniProt P07948); experiment: Inhibition of LYN (unknown origin) relative to control; conditions: concentration not given here
[27] = molecular target: Tyrosine-protein kinase CSK (Homo sapiens) (UniProt P41240); experiment: Inhibition of CSK (unknown origin) relative to control; conditions: concentration not given here
Sequence of Tyrosine-protein kinase CSK (Homo sapiens) (P41240 2-450 limits assumed): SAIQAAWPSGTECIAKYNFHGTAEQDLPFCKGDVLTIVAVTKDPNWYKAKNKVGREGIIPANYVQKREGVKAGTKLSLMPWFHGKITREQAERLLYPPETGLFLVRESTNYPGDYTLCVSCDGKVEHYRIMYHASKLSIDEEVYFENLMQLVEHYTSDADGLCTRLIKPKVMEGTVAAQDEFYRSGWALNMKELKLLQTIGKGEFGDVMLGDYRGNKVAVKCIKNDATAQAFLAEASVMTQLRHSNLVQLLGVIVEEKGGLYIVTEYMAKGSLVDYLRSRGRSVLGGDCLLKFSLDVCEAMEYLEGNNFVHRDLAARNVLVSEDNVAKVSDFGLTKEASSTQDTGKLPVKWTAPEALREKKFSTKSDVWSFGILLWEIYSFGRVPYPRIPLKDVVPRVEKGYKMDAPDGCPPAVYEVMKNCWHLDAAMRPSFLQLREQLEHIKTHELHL

[28] = molecular target: Mitogen-activated protein kinase 14 (Homo sapiens) (UniProt Q16539); experiment: Inhibition of p38alpha (unknown origin) relative to control; conditions: concentration not given here
[29] = molecular target: T1, Tyrosine-protein kinase BTK; experiment: Time dependent inhibition of wild type N-terminal GST tagged BTK (unknown origin) (2 to 659 residues) expressed in sf21 insect cell using TK as substrate in presence of ATP by HTRF assay; conditions: time 50.0 min, TDE = time-dependent effect
[30] = molecular target: T1, Tyrosine-protein kinase BTK; experiment: as §1, with “BTK” for “BLK”; type: cell-based
HEK293 = experiment: as §1, with “BLK C319A mutant over expressed” for “BLK”, “HEK293” for “human NAMALVA”; type: cell-based; conditions: Homo sapiens
[31] = molecular target: T2, Tyrosine-protein kinase Blk; experiment: as §1, with “to wild type” for “to”, “BLK over expressed” for “BLK”, “HEK293” for “human NAMALVA”; type: cell-based
Target sequence in this assay (P51451 2-505 limits assumed): as the sequence (P51451 2-505 limits assumed) above

SMILES: Cc1ccc(NC(=O)c2ccc3ccccc3c2)cc1C(=O)Nc1cnc(Nc2cccc(N)c2)nc1
IC50 [1]: 78.8 nM

SMILES: Cc1ccc(NC(=O)c2ccc3cc4ccccc4cc3c2)cc1C(=O)Nc1cnc(Nc2cccc(N)c2)nc1
IC50 [1]: 319 nM

SMILES: Cc1ccc(NC(=O)c2cccc(-c3ccccc3)c2)cc1C(=O)Nc1cnc(Nc2cccc(N)c2)nc1
IC50 [1]: 660 nM

SMILES: Cc1ccc(NC(=O)CC23CC4CC(CC(C4)C2)C3)cc1C(=O)Nc1cnc(Nc2cccc(N)c2)nc1
IC50 [1]: 338 nM

SMILES: Cc1ccc(NC(=O)c2ccc(-c3ccccc3)cc2)cc1C(=O)Nc1cnc(Nc2cccc(N)c2)nc1
IC50 [1]: 255 nM

SMILES: C=CC(=O)Nc1cccc(Nc2ncc(NC(=O)c3cc(NC(=O)c4ccc5cnccc5c4)ccc3C)cn2)c1
inhibition [29]: Tde
IC50 [30]: 110 nM
IC50 [1]: 56 nM

SMILES: C=CC(=O)NCCC(=O)Nc1cccc(Nc2ncc(NC(=O)c3cc(NC(=O)c4ccc5cnccc5c4)ccc3C)cn2)c1
IC50 [1]: 388 nM

SMILES: Cc1ccc(NC(=O)c2cccc(-c3ccc(F)nc3)c2)cc1C(=O)Nc1cnc(Nc2cccc(N)c2)nc1
IC50 [1]: 507 nM

SMILES: Cc1ccc(NC(=O)c2ccc3cc(O)ccc3c2)cc1C(=O)Nc1cnc(Nc2cccc(N)c2)nc1
IC50 [1]: 212 nM

SMILES: Cc1ccc(NC(=O)OCc2ccccc2)cc1C(=O)Nc1cnc(Nc2cccc(N)c2)nc1
IC50 [1]: 444 nM

SMILES: COc1ccc2cc(C(=O)Nc3ccc(C)c(C(=O)Nc4cnc(Nc5cccc(N)c5)nc4)c3)ccc2c1
IC50 [1]: 63.8 nM

SMILES: Cc1ccc(NC(=O)c2ccc3cnccc3c2)cc1C(=O)Nc1cnc(Nc2cccc(NC3CCN(C(=O)CF)CC3)c2)nc1
IC50 [1]: 63.4 nM

SMILES: Cc1ccc(NC(=O)c2cccc(C(F)(F)F)c2)cc1C(=O)Nc1cnc(Nc2cccc(N)c2)nc1
IC50 [1]: 42.1 nM

SMILES: Cc1ccc(NC(=O)c2ccc3cc(Br)ccc3c2)cc1C(=O)Nc1cnc(Nc2cccc(N)c2)nc1
IC50 [1]: 145 nM

SMILES: Cc1ccc(NC(=O)c2ccc3ncccc3c2)cc1C(=O)Nc1cnc(Nc2cccc(N)c2)nc1
IC50 [1]: 410 nM

Second part, led by results:

inhibition [2]: 94%
inhibition [3]: 101%
inhibition [4]: Active
GI50 (A-431): > 30000 nM
GI50 (MOLT-4): 18800 nM
inhibition [5]: 5%
inhibition [6]: 83%
IC50 [9]: 5.9 nM
inhibition [10]: 99%
EC50 [11]: > 1000 nM
inhibition [12]: 97%
Ratio IC50 (Homo sapiens): 34.2
GI50 (HCT-116): 8100 nM
GI50 (A549): > 30000 nM
EC50 [13]: > 1000 nM
IC50 [14]: 12 nM
inhibition [16]: 19%
inhibition [18]: 19%
GI50 (MDA-MB-453): > 30000 nM
GI50 (OCI-Ly7): 20 nM
GI50 (SU-DHL-6 [20]): 130 nM
GI50 (SU-DHL10): 560 nM
GI50 (Jurkat): 10900 nM
inhibition [21]: 100%
IC50 [1]: 202 nM
GI50 (A-375): > 30000 nM
inhibition [24]: Active
SMILES: Cc1ccc(NC(=O)c2ccc3cnccc3c2)cc1C(=O)Nc1cnc(Nc2cccc(NC3CCN(C(=O)/C=C/CN(C)C)CC3)c2)nc1
Activity (SU-DHL-6 [7]): Active
GI50 [8]: 1340 nM
Activity [15]: 55%
GI50 at 72 h [17]: > 30000 nM
Activity (SU-DHL-6 [19]): Active
GI50 (Pfeiffer): 2180 nM
GI50 (DOHH-2 [22]): 16 nM
GI50 at 72 h [23]: > 30000 nM
GI50 (TMD8): 64 nM
Activity (DOHH-2 [25]): Active

IC50 [9]: 8.8 nM
Ratio IC50 (Homo sapiens): 6.6
IC50 [14]: 5.5 nM
inhibition [26]: > 80%
inhibition [27]: > 80%
IC50 [1]: 58 nM
inhibition [28]: > 80%
SMILES: C=CC(=O)N1CCC(Nc2cccc(Nc3ncc(NC(=O)c4cc(NC(=O)c5ccc6cnccc6c5)ccc4C)cn3)c2)CC1

IC50 [1]: 694 nM
SMILES: Cc1ccc(NC(=O)c2cccc(-c3ccc(F)cc3)c2)cc1C(=O)Nc1cnc(Nc2cccc(N)c2)nc1

IC50 [9]: 18.8 nM
IC50 [14]: 15 nM
inhibition (HEK293): Active
inhibition [31]: Active
SMILES: C=CC(=O)Nc1cccc(Nc2ncc(NC(=O)c3cc(NC(=O)c4cccc(C(F)(F)F)c4)ccc3C)cn2)c1

IC50 [1]: 360 nM
SMILES: Cc1ccc(NC(=O)c2cccc(-c3ccco3)c2)cc1C(=O)Nc1cnc(Nc2cccc(N)c2)nc1

IC50 [1]: 227 nM
SMILES: Cc1ccc(NC(=O)c2cccc(-c3cccnc3)c2)cc1C(=O)Nc1cnc(Nc2cccc(N)c2)nc1

IC50 [1]: 407 nM
SMILES: Cc1ccc(NC(=O)c2ccc3cnccc3c2)cc1C(=O)Nc1cnc(Nc2cccc(N)c2)nc1
